From patent publication EP0908457B1, “3-(1,2-benzisothiazol- and isoxazol-5-Y1)-2,4(1H,3H)-pyrimidinedione or thione and 3-(1,2-benzisothiazol- and isoxazol-5-y1)-4(3H)-pyrimidinone or thione herbicidal agents” (BASF AKTIENGESELLSCHAFT, priority 1997, dated 1999)

Experiments:
[1] = test system: Cyperus serotinus, Rottb.; experiment: Postemergence weed control under flooded paddy conditions, CYPSE (Flatsedge); assay type: in vivo; details: rated three to four weeks after treatment
[2] = test system: Monochoria vaginalis, Presl.; experiment: Preemergence weed control under flooded paddy conditions, MOOVA (Monochoria); assay type: in vivo; details: preemergence weeds, flooded paddy, rated three to four weeks after treatment; further: meaning of each grade not given here
[3] = test system: Cyperus iria; experiment: Postemergence weed control under flooded paddy conditions, CYPIR (Rice Flatsedge); assay type: in vivo; details: rated three to four weeks after treatment
[4] = test system: Oryza sativa, (L.) Tebonnet; experiment: Rice tolerance to post-transplant applications under flooded paddy conditions (Example 187), ORYSAT (Rice, Tebonnet); details: rated three to four weeks after treatment; further: meaning of each grade not given here
[5] = test system: Cyperus iria; experiment: Preemergence weed control under flooded paddy conditions, CYPIR (Rice Flatsedge); assay type: in vivo; details: preemergence weeds, flooded paddy, rated three to four weeks after treatment; further: meaning of each grade not given here
[6] = test system: Sagittaria pygmaea, L.; experiment: Postemergence weed control under flooded paddy conditions, SAGPY (Arrowhead (Pygmaea)); assay type: in vivo; details: rated three to four weeks after treatment
[7] = test system: Echinochloa oryzoides (Ard.) Fritsch.; experiment: Postemergence weed control under flooded paddy conditions, ECHORC (Watergrass (Calif.)); assay type: in vivo; details: rated three to four weeks after treatment
[8] = test system: Cyperus serotinus, Rottb.; experiment: Preemergence weed control under flooded paddy conditions, CYPSE (Flatsedge); assay type: in vivo; details: preemergence weeds, rated three to four weeks after treatment; further: meaning of each grade not given here
[9] = test system: Echinochloa oryzoides (Ard.) Fritsch.; experiment: Preemergence weed control under flooded paddy conditions, ECHORC (Watergrass (Calif.)); assay type: in vivo; details: preemergence weeds, flooded paddy, rated three to four weeks after treatment; further: meaning of each grade not given here
[10] = test system: Oryza sativa, (L.) Tebonnet; experiment: Rice tolerance to post-transplant applications under flooded paddy conditions (Example 188), ORYSAT (Rice, Tebonnet); details: rated three to four weeks after treatment
[11] = test system: Sagittaria pygmaea, L.; experiment: Preemergence weed control under flooded paddy conditions, SAGPY (Arrowhead (Pygmaea)); assay type: in vivo; details: preemergence weeds, flooded paddy, rated three to four weeks after treatment; further: meaning of each grade not given here
[12] = test system: Monochoria vaginalis, Presl.; experiment: Postemergence weed control under flooded paddy conditions, MOOVA (Monochoria); assay type: in vivo; details: rated three to four weeks after treatment

COc1ccc(OC)c(-c2nsc3ccc(-n4c(=O)cc(C(F)(F)F)n(C)c4=O)cc23)c1 [Example 333, 2,4(1H,3H)-Pyrimidinedione, 3-[3-(2,5-dimethoxyphenyl)-1,2-benzisothiazol-5-yl]-1-methyl-6-(trifluoromethyl)-]
7.5: herbicidal effect rating, CYPSE ([8]; Rate 0.1250 kg/ha) | herbicidal effect rating, CYPSE ([8]; Rate 0.2500 kg/ha)
2.0: herbicidal effect rating, CYPSE ([1]; Rate 0.0620 kg/ha) | herbicidal effect rating, SAGPY ([6]; Rate 0.0620 kg/ha)
8.0: herbicidal effect rating, CYPSE ([1]; Rate 0.2500 kg/ha) | herbicidal effect rating, SAGPY ([11]; Rate 0.0620 kg/ha)
9.0: herbicidal effect rating, MOOVA ([2]; Rate 0.0320 kg/ha) | herbicidal effect rating, MOOVA ([2]; Rate 0.0620 kg/ha) | herbicidal effect rating, MOOVA ([2]; Rate 0.1250 kg/ha) | herbicidal effect rating, MOOVA ([2]; Rate 0.2500 kg/ha) | herbicidal effect rating, CYPIR ([3]; Rate 0.0320 kg/ha) | herbicidal effect rating, CYPIR ([3]; Rate 0.0620 kg/ha) | herbicidal effect rating, CYPIR ([3]; Rate 0.1250 kg/ha) | herbicidal effect rating, CYPIR ([3]; Rate 0.2500 kg/ha) | herbicidal effect rating, CYPIR ([5]; Rate 0.0320 kg/ha) | herbicidal effect rating, CYPIR ([5]; Rate 0.0620 kg/ha) | herbicidal effect rating, CYPIR ([5]; Rate 0.1250 kg/ha) | herbicidal effect rating, CYPIR ([5]; Rate 0.2500 kg/ha) | herbicidal effect rating, ECHORC ([7]; Rate 0.0320 kg/ha) | herbicidal effect rating, ECHORC ([7]; Rate 0.0620 kg/ha) | herbicidal effect rating, ECHORC ([7]; Rate 0.1250 kg/ha) | herbicidal effect rating, ECHORC ([7]; Rate 0.2500 kg/ha) | herbicidal effect rating, ECHORC ([9]; Rate 0.0320 kg/ha) | herbicidal effect rating, ECHORC ([9]; Rate 0.0620 kg/ha) | herbicidal effect rating, ECHORC ([9]; Rate 0.1250 kg/ha) | herbicidal effect rating, ECHORC ([9]; Rate 0.2500 kg/ha) | herbicidal effect rating, SAGPY ([11]; Rate 0.2500 kg/ha) | herbicidal effect rating, MOOVA ([12]; Rate 0.0320 kg/ha) | herbicidal effect rating, MOOVA ([12]; Rate 0.0620 kg/ha) | herbicidal effect rating, MOOVA ([12]; Rate 0.1250 kg/ha) | herbicidal effect rating, MOOVA ([12]; Rate 0.2500 kg/ha)
5.5: herbicidal effect rating, SAGPY ([11]; Rate 0.0320 kg/ha)
0.0: herbicidal effect rating, CYPSE ([1]; Rate 0.0320 kg/ha) | herbicidal effect rating, SAGPY ([6]; Rate 0.0320 kg/ha)
6.0: herbicidal effect rating ORYSAT ([4]; Rate 0.0620 kg/ha) | herbicidal effect rating, ORYSAT (rice tolerance) ([10]; Rate 0.1250 kg/ha) | herbicidal effect rating, ORYSAT (rice tolerance) ([10]; Rate 0.2500 kg/ha)
4.0: herbicidal effect rating, CYPSE ([1]; Rate 0.1250 kg/ha) | herbicidal effect rating ORYSAT ([4]; Rate 0.0320 kg/ha) | herbicidal effect rating, SAGPY ([6]; Rate 0.1250 kg/ha) | herbicidal effect rating, SAGPY ([6]; Rate 0.2500 kg/ha) | herbicidal effect rating, ORYSAT (rice tolerance) ([10]; Rate 0.0320 kg/ha)
8.5: herbicidal effect rating, SAGPY ([11]; Rate 0.1250 kg/ha)
5.0: herbicidal effect rating, ORYSAT (rice tolerance) ([10]; Rate 0.0620 kg/ha)
7.0: herbicidal effect rating ORYSAT ([4]; Rate 0.1250 kg/ha) | herbicidal effect rating ORYSAT ([4]; Rate 0.2500 kg/ha) | herbicidal effect rating, CYPSE ([8]; Rate 0.0320 kg/ha) | herbicidal effect rating, CYPSE ([8]; Rate 0.0620 kg/ha)
